Read-outs that look alike come from different tables or passages of the source.
Legend:
human FABP1 (hFABP1) = molecular target: T1, human FABP1 (hFABP1) (Homo sapiens, UniProt P07148); experiment: DAUDA displacement assay for hFABP1 binding; settings: for Fres (% Fluorescence Remaining): residual DAUDA-FABP1 fluorescence at saturating ligand (Min of eq. 7); for Maximum decrease of DAUDA-FABP1 fluorescence at saturation: 0.3 μM FABP1, 0.5 μM DAUDA
T1 sequence (P07148 1-127): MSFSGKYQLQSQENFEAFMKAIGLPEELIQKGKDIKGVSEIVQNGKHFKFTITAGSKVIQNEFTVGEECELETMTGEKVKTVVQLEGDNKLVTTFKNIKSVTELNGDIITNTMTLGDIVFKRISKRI

CYP2C9 = CYP2C9 (Homo sapiens, UniProt P11712); format: in vitro ADME
FABP2 = settings: ref Patil et al., 2014; cited from earlier work

Sequence of CYP2C9 (P11712 whole entry): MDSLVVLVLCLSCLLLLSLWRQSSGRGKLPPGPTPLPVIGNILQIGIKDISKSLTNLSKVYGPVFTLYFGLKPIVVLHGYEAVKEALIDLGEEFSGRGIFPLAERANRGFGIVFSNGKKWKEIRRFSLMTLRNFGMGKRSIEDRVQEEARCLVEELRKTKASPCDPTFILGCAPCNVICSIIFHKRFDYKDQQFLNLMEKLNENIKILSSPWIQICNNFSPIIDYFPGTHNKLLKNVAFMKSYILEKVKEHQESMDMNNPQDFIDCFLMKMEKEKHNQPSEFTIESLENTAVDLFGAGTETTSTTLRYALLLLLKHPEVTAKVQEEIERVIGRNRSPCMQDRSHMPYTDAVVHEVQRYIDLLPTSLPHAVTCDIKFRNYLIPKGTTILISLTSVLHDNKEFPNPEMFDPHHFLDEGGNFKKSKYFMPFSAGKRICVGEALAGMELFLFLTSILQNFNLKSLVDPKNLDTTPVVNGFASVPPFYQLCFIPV

Compound	EC50 (human FABP1 (hFABP1))	Fres (% Fluorescence Remaining) (human FABP1 (hFABP1))	further results
Nc1ccc(S(=O)(=O)Nc2ccnn2-c2ccccc2)cc1 [Sulfaphenazole, sulfaphenazole]	> 40 µM		
C[C@@H](C(=O)O)c1ccc(-c2ccccc2)c(F)c1 [R-Flurbiprofen, (R)-flurbiprofen]		40 ± 1.6%	
CCc1ccc(CCOc2ccc(CC3SC(=O)NC3=O)cc2)nc1 (centres unmarked) [Pioglitazone, pioglitazone]		5.2 ± 2.4%	Maximum decrease of DAUDA-FABP1 fluorescence at saturation (human FABP1 (hFABP1)): > 82%
CCCCNC(=O)NS(=O)(=O)c1ccc(C)cc1 [Tolbutamide, tolbutamide]	> 40 µM		
O=C(O)Cc1ccccc1Nc1c(Cl)cccc1Cl [Diclofenac, diclofenac]		15 ± 3.0%	Maximum decrease of DAUDA-FABP1 fluorescence at saturation (human FABP1 (hFABP1)): > 82%; Maximum decrease of DAUDA-FABP1 fluorescence at saturation (human FABP1 (hFABP1); listed as diclofenac): ~85%; Km at 10 min (CYP2C9; CYP2C9 Supersomes (recombinant CYP2C9) with 20 μM hFABP1, pH 7.4, Km,apparent for 4'-OH-diclofenac formation, +FABP1, nominal diclofenac concentrations, 20 μM hFABP1, 1 nM CYP2C9 Supersomes): 5.8 ± 1.5 µM; Km at 10 min (CYP2C9; CYP2C9 Supersomes (recombinant CYP2C9), without hFABP1, pH 7.4, Km,apparent for 4'-OH-diclofenac formation, −FABP1, nominal diclofenac concentrations, absence of FABP1, 1 nM CYP2C9 Supersomes): 1.4 ± 0.2 µM
CCCCC/C=C\C/C=C\C/C=C\C/C=C\CCCC(=O)O [Arachidonic Acid, arachidonic acid]	0.42 ± 0.11 µM	2.2 ± 3.6%	
Cc1ccc(C)c(OCCCC(C)(C)C(=O)O)c1 [Gemfibrozil, gemfibrozil]	5.6 ± 1.7 µM	18 ± 2.8%	Maximum decrease of DAUDA-FABP1 fluorescence at saturation (human FABP1 (hFABP1)): > 82%
CC(C)Cc1ccc(C(C)C(=O)O)cc1 (centres unmarked) [Ibuprofen, ibuprofen]		28 ± 4.9%	
O=C(c1ccccc1)c1ccc2n1CCC2C(=O)O (centres unmarked) [Ketorolac, ketorolac]			Displacement of fluorescent probe ANS from FABP2 (FABP2): did not displace
C[C@H](C(=O)O)c1ccc(-c2ccccc2)c(F)c1 [S-Flurbiprofen, (S)-flurbiprofen]		48 ± 1.1%	
CC(C(=O)O)c1ccc(-c2ccccc2)c(F)c1 (centres unmarked) [flurbiprofen]			Kd (human FABP1 (hFABP1)): 2 to 10 µM
CNCCC(Oc1ccc(C(F)(F)F)cc1)c1ccccc1 (centres unmarked) [fluoxetine]			Decrease of DAUDA fluorescence in initial screen (human FABP1 (hFABP1); drug at 30 μM, 0.3 μM FABP1 prebound with 0.5 μM DAUDA): All of the drugs tested except fluoxetine decreased DAUDA fluorescence

Reference: article PMC11114116 (Molecular Pharmacology, 2024)
